Source: US20210352900A1, “Method for Controlling PPO Resistant Weeds” (BASF SE, priority 2016, published 2021)

How the values were obtained:
[1] = test system: Amaranthus tamariscinus (AMATA, common waterhemp), sensitive biotype (w.1); assay: Greenhouse herbicidal activity test, sensitive common waterhemp (w.1); type: in vivo; settings: for Weed control (%) w.1: sensitive biotype, scale 0 (no damage) to 100 (complete destruction)
[2] = test system: Amaranthus tamariscinus (AMATA, common waterhemp), PPO resistant biotype 1 (w.2); assay: Greenhouse herbicidal activity test, PPO resistant common waterhemp biotype 1 (w.2); type: in vivo; settings: for activity on / control of resistant weeds (w.2), in words: azafenidin: in comparison to sensitive biotypes; for Weed control (%) w.2: PPO resistant biotype 1, scale 0 to 100

| Compound | activity on sensitive weeds (w.1), in words [1] | Weed control (%) w.1 ([1]; use rate 2 g/ha) [%] | Weed control (%) w.1 ([1]; use rate 4 g/ha) [%] | activity on / control of resistant weeds (w.2), in words [2] | Weed control (%) w.2 ([2]; use rate 2 g/ha) [%] | Weed control (%) w.2 ([2]; use rate 4 g/ha) [%] |
| --- | --- | --- | --- | --- | --- | --- |
| CCc1ccc(COc2ccc(-n3c(=O)cc(C(F)(F)F)n(C)c3=O)cc2)c(OC(C)C(=O)OC)c1 (centres unmarked) [(I).1, benzfendizone] | very good activity | 94 | 100 | very good activity | 89 | 92 |
| C#CCOc1cc(-n2nc3n(c2=O)CCCC3)c(Cl)cc1Cl [azafenidin, reference compound] |  | 95 | 98 | much weaker control | 67 | 73 |
